Measurements as given in PubChem BioAssay (NCI).
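At the GI50, growth is halved. At the TGI there is no net growth.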

Tests used:
Experiment in all cases: NCI anticancer screen, dose series, 384-well format
NCI-H322M lung = system: NCI-H322M lung
U251 glioblastoma = system: U251 glioblastoma
NCI-H460 NSCLC = system: NCI-H460 NSCLC
MDA-MB-435 melanoma = system: MDA-MB-435 melanoma
RPMI-8226 leukemia = system: RPMI-8226 leukemia
MDA-MB-468 breast = system: MDA-MB-468 breast
MDA-MB-231 breast = system: MDA-MB-231 breast
HOP-92 NSCLC = system: HOP-92 NSCLC
UO-31 renal = system: UO-31 renal
HCT-116 colon = system: HCT-116 colon
SNB-19 CNS = system: SNB-19 CNS
MOLT-4 leukemia = system: MOLT-4 leukemia
UACC-62 melanoma = system: UACC-62 melanoma

Structure (SMILES): O=C1Nc2ccc(I)cc2/C1=C/c1cc(Br)c(O)c(Br)c1
- GI50 (NCI-H322M lung): 15.7 µM
- TGI (NCI-H322M lung): 39.6 µM
- GI50 (U251 glioblastoma): 11.7 µM
- TGI (U251 glioblastoma): 24.3 µM
- GI50 (NCI-H460 NSCLC): 14.9 µM
- TGI (NCI-H460 NSCLC): 28.6 µM
- GI50 (MDA-MB-435 melanoma): 8.13 µM
- TGI (MDA-MB-435 melanoma): 29.1 µM
- GI50 (RPMI-8226 leukemia): 6.64 µM
- TGI (RPMI-8226 leukemia): 19.2 µM
- GI50 (MDA-MB-468 breast): 11.7 µM
- TGI (MDA-MB-468 breast): 25.2 µM
- GI50 (MDA-MB-231 breast): 14 µM
- TGI (MDA-MB-231 breast): 31.7 µM
- GI50 (HOP-92 NSCLC): 15.6 µM
- TGI (HOP-92 NSCLC): 31.9 µM
- GI50 (UO-31 renal): 13.1 µM
- TGI (UO-31 renal): 28.2 µM
- GI50 (HCT-116 colon): 16.3 µM
- TGI (HCT-116 colon): 30.4 µM
- GI50 (SNB-19 CNS): 21.4 µM
- TGI (SNB-19 CNS): 56.3 µM
- GI50 (MOLT-4 leukemia): 13.4 µM
- TGI (MOLT-4 leukemia): 26.2 µM
- GI50 (UACC-62 melanoma): 7.69 µM
- TGI (UACC-62 melanoma): 21 µM
